SMILES strings stand for the structures. Bounds are passed on as bounds.

The target of one assay is T1, MARK3 (Homo sapiens, UniProt P27448).
T1 construct: purchased MRC PPU
T1 sequence (P27448 whole entry): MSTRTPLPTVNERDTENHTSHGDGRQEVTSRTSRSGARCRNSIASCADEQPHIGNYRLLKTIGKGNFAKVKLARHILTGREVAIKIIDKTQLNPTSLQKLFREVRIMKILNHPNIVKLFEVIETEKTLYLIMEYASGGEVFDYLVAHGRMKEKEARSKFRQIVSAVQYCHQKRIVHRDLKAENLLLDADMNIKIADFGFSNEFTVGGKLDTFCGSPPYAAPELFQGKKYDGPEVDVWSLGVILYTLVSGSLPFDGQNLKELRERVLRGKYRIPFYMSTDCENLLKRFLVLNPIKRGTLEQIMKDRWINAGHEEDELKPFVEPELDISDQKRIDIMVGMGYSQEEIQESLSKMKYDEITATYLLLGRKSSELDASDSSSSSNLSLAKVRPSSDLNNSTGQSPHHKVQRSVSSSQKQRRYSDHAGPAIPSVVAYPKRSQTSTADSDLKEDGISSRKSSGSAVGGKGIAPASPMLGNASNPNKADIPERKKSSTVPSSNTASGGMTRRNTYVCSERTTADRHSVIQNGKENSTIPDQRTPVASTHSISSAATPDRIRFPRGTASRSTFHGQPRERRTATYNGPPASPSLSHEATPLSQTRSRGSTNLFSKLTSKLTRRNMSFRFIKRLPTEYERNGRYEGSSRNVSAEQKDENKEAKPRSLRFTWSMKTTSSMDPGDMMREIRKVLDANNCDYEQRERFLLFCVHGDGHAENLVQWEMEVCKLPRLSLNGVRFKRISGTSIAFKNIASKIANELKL
Nature of the assay: ADP-Glo biochemical assay MARK3. As to conditions: ADP-Glo assay. How it is done:
(§1) Biological experimental procedures
(§2) ADP-Glo biochemical assays
(§3) Protein kinase activity in the presence of inhibitor compounds was determined by ADP-Glo assay (Promega), as previously described.1,2 Compounds were serialised using a Labcyte Echo 520 and transferred to 384 well plates (Greiner 784201) followed by the addition 5 µL of substrate containing peptide and ATP at Km in buffer (see Table S6). 5 µL of purified protein was added and the plate was incubated for 60 minutes at room temperature (ng/well; see Table S6). 3 µL of assay mixture was transferred using an Integra Viaflo384 into a white low volume plate (Greiner 781904) prior to the addition of 3 µL of ADP-Glo Reagent™ for a further 40 minute incubation. After incubation with 6 µL of Kinase Detection Reagent for 30 minutes, plate luminescence was read (Pherastar FSX, BMG […]
(§4) 30 mM HEPES pH7.4, 3 mM MgCl2, 3 mM MnCl2, 1.2 mM DTT, 0.01% CHAPS
(§5) Table S6: Conditions for protein kinase ADP-Glo assays
(§6) ATP AT Peptide Peptide Enzyme Enzyme Assay Buffe Min.
(§7) Protein conc. P Peptide name conc. supplier amount supplier vol. r na […]
(§8) NUAK1 µM µM Sakamototide 50 µM Merck 6.7 ng PPU 10 µl A 6
(§9) A µM µM Sakamototide 100 µM Merck 1 ng PPU 10 µl B 2 […]
(§10) aMin. n: Minimum number of technical replicates per compound
Background: In ADP-Glo the light output rises with the ADP produced.
On to `COc1nn(C)cc1Nc1ncc2c(C)cc(=O)n(C3CCCC3)c2n1` [Compound 18], for which the “MARK3 pIC50” value is given as 4.9.

In the case of `COCCn1c(=O)cc(C)c2cnc(Nc3ccc(N4CC5CC(C4)N5C)cc3)nc21` [Compound 21], the “MARK3 pIC50” value is 5.2.

Consider `Cc1cc(=O)n(CC(O)CO)c2nc(Nc3ccc(N4CC5CC(C4)N5C)cc3)ncc12` (centres unmarked) [Compound 22], for which the “MARK3 pIC50” value was determined as 5.7.

For the compound `CN1C2CC1CN(c1ccc(Nc3ncc4ccn(C5COC5)c4n3)cc1)C2` [Compound 31], the “MARK3 pIC50” value was determined as 5.4.

The same assay, now with this note: ADP-Glo assay; read-out: MARK3 pIC50 (converted).
Turning to `Cc1cc(=O)n(C2CCCC2)c2nc(Nc3ccc(N4CCNCC4)cn3)ncc12` [Compound 13], the IC50 is greater than 3.16 µM.

As to `CN1C2CC1CN(c1ccc(Nc3ncc4ccn(C5CCOC5)c4n3)cc1)C2` (centres unmarked) [Compound 30], the IC50 was 6.31 µM.

The same assay, now with this note: MARK3 IC50/NUAK1 IC50.
In the case of `Cc1cc(=O)n(C2CCCC2)c2nc(Nc3ccc(N4CCNCC4)cn3)ncc12` [Compound 13], the “MARK3 Fold selectivity IC50/NUAK1 IC50” value is greater than 11 fold.

On to `COc1nn(C)cc1Nc1ncc2c(C)cc(=O)n(C3CCCC3)c2n1` [Compound 18], for which the “MARK3 Fold selectivity IC50/NUAK1 IC50” value was 40 fold.

`COCCn1c(=O)cc(C)c2cnc(Nc3ccc(N4CC5CC(C4)N5C)cc3)nc21` [Compound 21]: the “MARK3 Fold selectivity IC50/NUAK1 IC50” value is recorded as 35 fold.

Regarding `Cc1cc(=O)n(CC(O)CO)c2nc(Nc3ccc(N4CC5CC(C4)N5C)cc3)ncc12` (centres unmarked) [Compound 22], the “MARK3 Fold selectivity IC50/NUAK1 IC50” value came to 20 fold.

Regarding `CN1C2CC1CN(c1ccc(Nc3ncc4ccn(C5CCOC5)c4n3)cc1)C2` (centres unmarked) [Compound 30], the “MARK3 Fold selectivity IC50/NUAK1 IC50” value was 388 fold.

As for `CN1C2CC1CN(c1ccc(Nc3ncc4ccn(C5COC5)c4n3)cc1)C2` [Compound 31], the “MARK3 Fold selectivity IC50/NUAK1 IC50” value is 263 fold.

The next assay addresses T2, NUAK1 (Homo sapiens, UniProt O60285).
T2 sequence (O60285 1-661): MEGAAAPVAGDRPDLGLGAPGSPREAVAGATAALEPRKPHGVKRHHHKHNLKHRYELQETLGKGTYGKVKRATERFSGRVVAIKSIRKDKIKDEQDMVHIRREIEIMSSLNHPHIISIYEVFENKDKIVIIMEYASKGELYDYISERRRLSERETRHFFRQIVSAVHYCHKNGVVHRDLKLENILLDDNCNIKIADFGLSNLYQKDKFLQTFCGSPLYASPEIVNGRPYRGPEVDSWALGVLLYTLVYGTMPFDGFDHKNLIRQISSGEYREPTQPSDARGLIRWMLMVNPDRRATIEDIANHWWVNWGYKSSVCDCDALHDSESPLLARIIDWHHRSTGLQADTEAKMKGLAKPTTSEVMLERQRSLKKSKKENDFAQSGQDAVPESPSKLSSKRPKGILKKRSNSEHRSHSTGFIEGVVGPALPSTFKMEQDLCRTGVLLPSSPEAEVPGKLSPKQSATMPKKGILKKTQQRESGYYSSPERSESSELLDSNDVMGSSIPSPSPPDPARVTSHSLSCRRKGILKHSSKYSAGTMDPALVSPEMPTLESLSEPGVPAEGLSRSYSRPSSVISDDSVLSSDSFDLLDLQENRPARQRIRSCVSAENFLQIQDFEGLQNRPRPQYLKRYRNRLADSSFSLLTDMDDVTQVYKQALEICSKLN
Nature of the assay: ADP-Glo biochemical assay NUAK1. Also noted: purchased MRC PPU. As to conditions: ADP-Glo assay. How it is done: as §1, §2, §3, §4, §5, §6, §7, §8, §9, §10
As to `COc1nn(C)cc1Nc1ncc2c(C)cc(=O)n(C3CCCC3)c2n1` [Compound 18], the “NUAK1 pIC50” value is given as 6.5.

For the compound `COCCn1c(=O)cc(C)c2cnc(Nc3ccc(N4CC5CC(C4)N5C)cc3)nc21` [Compound 21], the “NUAK1 pIC50” value was 6.7.

As for `Cc1cc(=O)n(CC(O)CO)c2nc(Nc3ccc(N4CC5CC(C4)N5C)cc3)ncc12` (centres unmarked) [Compound 22], the “NUAK1 pIC50” value was 7.0.

For `CN1C2CC1CN(c1ccc(Nc3ncc4ccn(C5COC5)c4n3)cc1)C2` [Compound 31], the “NUAK1 pIC50” value stood at 7.8.

The same assay, now with this note: ADP-Glo assay; read-out: NUAK1 pIC50 (converted).
Consider `Cc1cc(=O)n(C2CCCC2)c2nc(Nc3ccc(N4CCNCC4)cn3)ncc12` [Compound 13], for which the IC50 is 0.316 µM.

As to `CC(=O)c1c(C)c2cnc(Nc3ccc(N4CCNCC4)cn3)nc2n(C2CCCC2)c1=O` [Compound 14, Palbociclib, reference compound], the IC50 was 20 µM.

Consider `CN1C2CC1CN(c1ccc(Nc3ncc4ccn(C5CCOC5)c4n3)cc1)C2` (centres unmarked) [Compound 30], for which the IC50 was 0.0158 µM.

The target in another assay is T2, NUAK1. Description: NanoBRET target engagement assay, HEK293 cells. As to conditions: cell-based NanoBRET target engagement assay. How it is done: NanoBRET® target engagement assay
The binding of compounds to NUAK1 in intact cells was assessed using an NanoBRET® TE Intracellular Kinase Assay (Promega N2501). HEK293 cells transiently transfected with NanoLuc®- NUAK1 Fusion Vector (Promega NV1831) were incubated with 10 nL K5 tracer (provided in the kit, Promega N2501) and 40 nL of the test compounds in 100% DMSO in a white low volume non-binding 384 assay plate (Grenier Bio One 784904) for 90 min at 37 °C. After incubation, followed by cooling for 15 min at room temperature, 4 µL of the Intracellular TE Nano-Glo ® Substrate/Inhibitor (Promega N2160) was added to each well. The plate was read using a Pherastar FSX plate reader (BMG Labtech).
Minimum number of 2 technical replicates per compound.
Activity pIC50 values and standard error of the mean (SEM) were estimated using a 4-parameter fit (Dotmatics). The SEM for all reported data was 0.2 or lower. See Experimental Procedures for minimum number of replicates per compound. Each experiment included a Standard compound whose pIC50 value was compared to a quality control chart. If the Standard pIC50 value fell outside the range of pIC50 +/-3 standard deviation, then the experiment was invalidated. […]
Background: Bioluminescence resonance energy transfer reports proximity on the nanometre scale.
For the compound `Cc1nc(Nc2cnn(C3CCNCC3)c2)nc2c1N(C)C(=O)c1cc3ccccc3cc1N2C` [Compound 2, HTH-01-015, reference compound], the “NUAK1 cell TE pIC50” value is less than 4.3.

Source of the values: publication PMC11831560, “Development of the Pyrido[2,3-d]pyrimidin-7(8H)-one Scaffold toward Potent and Selective NUAK1 Inhibitors” (ACS Medicinal Chemistry Letters, 2025).
